According to patent publication US8329645B2, “Polymyxin derivatives and uses thereof” (priority 2008, dated 2012):
Where two headings read alike, the source gives them in different places. Where a SMILES comes first, the peptide text is derived from it. Bridges are numbered along the chain shown (N, C = ends). [ ]: non-standard residue; d: D form. The star is where a group is joined. Decanoyl = CCCCCCCCCC(=O)*; Octanoyl = CCCCCCCC(=O)*; Dab = NCC[C@H](N)C(=O)O; Abu = CC[C@H](N)C(=O)O

Key:
[1] = system: Acinetobacter baumannii ATCC 19606; experiment: Growth inhibition around wells on LB agar plates; format: cell-based; settings: A. baumannii ATCC 19606
[2] = system: Ps. aeruginosa ATCC 27853; experiment: Sensitization to rifampin: growth inhibition around wells on LB plates containing rifampin; format: cell-based, Pseudomonas aeruginosa; settings: 4 μg
A. baumannii F263 = system: A. baumannii F263
Experimental: (§1) Polymyxin B sulfate (Sigma-Aldrich, St. Louis, Mo., USA) was used as a control. […] The bacterial test strains originated from ATCC (10 strains), CCUG (11 strains), and NCTC (3 strains). Fourteen (14) strains (the F-strains) were purchased from Mobidiag Ltd., Helsinki, Finland.
(§2) The inocula were prepared by adjusting the bacterial suspensions to a density equivalent to OD546 nm˜0.3 (˜10^8 CFU/ml˜0.5 McFarland) the yeast suspension to a density equivalent to OD546 nm˜0.75 (˜2×10^7 CFU/ml)._The suspensions were diluted to 10^7 CFU/ml. The plates were inoculated by using a Denley Multipoint Inoculator, 1 μl per spot corresponding to approx. 10^4 CFU/spot. Plates were incubated for 16-20 hours at 35° C.

A. baumannii F264 = system: A. baumannii F264
Experimental: as §1, §2

C. freundii ATCC 8090 = system: C. freundii ATCC 8090
Experimental: as §1, §2

E. cloacae CCUG 52947 = system: E. cloacae CCUG 52947
Experimental: as §1, §2

E. cloacae F230 = system: E. cloacae F230
Experimental: as §1, §2

E. cloacae F232 = system: E. cloacae F232
Experimental: as §1, §2

E. coli ATCC 25922 = system: E. coli ATCC 25922
Experimental: as §1, §2

E. coli CCUG 41422 = system: E. coli CCUG 41422
Experimental: as §1, §2

E. coli CCUG 41427 = system: E. coli CCUG 41427
Experimental: as §1, §2

E. coli CCUG 41429 = system: E. coli CCUG 41429
Experimental: as §1, §2

E. coli CCUG 41432 = system: E. coli CCUG 41432
Experimental: as §1, §2

E. coli F10 = system: E. coli F10
Experimental: as §1, §2

E. coli NCTC 13353 = system: E. coli NCTC 13353
Experimental: as §1, §2

K. oxytoca ATCC 13182 = system: K. oxytoca ATCC 13182
Experimental: as §1, §2

K. pneumoniae ATCC 13883 = system: K. pneumoniae ATCC 13883
Experimental: as §1, §2

K. pneumoniae CCUG 45421 = system: K. pneumoniae CCUG 45421
Experimental: as §1, §2

K. pneumoniae F144 = system: K. pneumoniae F144
Experimental: as §1, §2

K. pneumoniae F145 = system: K. pneumoniae F145
Experimental: as §1, §2

P. aeruginosa ATCC 27853 = system: P. aeruginosa ATCC 27853
Experimental: as §1, §2

P. aeruginosa F58 = system: P. aeruginosa F58
Experimental: as §1, §2

S. aureus ATCC 25923 = system: S. aureus ATCC 25923
Experimental: as §1, §2

[3] = biological target: brush-border membrane (BBM) from the renal cortex; experiment: Inhibition of binding of radiolabelled gentamycin to brush-border membrane vesicles; settings: rat renal cortex BBM vesicles; 20 μM [3H] gentamycin; 60 min at 4° C.
Source text: The binding of the compounds according to this invention to isolated brush-border membrane (BBM) from the renal cortex can be measured indirectly by measuring their ability to inhibit the binding of radiolabelled gentamycin to BBM. Accordingly, the compounds according to this invention that have less affinity to BBM than for example polymyxin B inhibit the binding of radiolabelled gentamycin to a lesser degree than does polymyxin B.
BBM was isolated from the renal cortex of male albino rats by using the Mg^2+/EGTA precipitation technique as described by Nagai et al. (2006). The binding of gentamycin was measured, according to the method described by Nagai et al. (2006) by incubating BBM vesicles (20 μl) in 10 mM HEPES (pH 7.5) with 300 mM mannitol in the presence of 20 μM [^3H] gentamycin (American Radiolabeled Chemicals, Inc. (St. Louis, Mo., U.S.A.) with or without the compound to be tested or a positive control. After an incubation of 60 min at 4° C., 1 ml of ice-cold buffer described above was added, and the mixture was filtered through a Millipore filter (0.45 μm; HAWP). The filter was washed with the buffer and the radioactivity remaining in the filter was measured by using a liquid scintillation counter. The IC50 values were determined as in Nagai et al. (2006) using the Hill equation.

CCCCCCCC(=O)N[C@H](C(=O)N[C@@H](CC)C(=O)N[C@H]1CCNC(=O)[C@H]([C@@H](C)O)NC(=O)[C@H](CCN)NC(=O)[C@H](CCN)NC(=O)[C@H](CC(C)C)NC(=O)[C@@H](Cc2ccccc2)NC(=O)[C@H](CCN)NC1=O)[C@@H](C)O [NAB 7061, OA-Thr-Abu-cy[Dab-Dab-DPhe-Leu-Dab-Dab-Thr-]] (Octanoyl-T[Abu][Dab][Dab][dF]L[Dab][Dab]T; lactam 3-C)
16 µg/mL: MIC (C. freundii ATCC 8090; ATCC 8090) | MIC (E. coli CCUG 41429; CCUG 41429)
>32 µg/mL: MIC (A. baumannii F263; F263) | MIC (A. baumannii F264; F264) | MIC (E. cloacae CCUG 52947; CCUG 52947) | MIC (E. cloacae F230; F230) | MIC (E. cloacae F232; F232) | MIC (E. coli ATCC 25922; ATCC 25922) | MIC (E. coli CCUG 41422) | MIC (E. coli CCUG 41427; CCUG 41427) | MIC (E. coli CCUG 41432; CCUG 41432) | MIC (E. coli F10; F10) | MIC (E. coli NCTC 13353; NCTC 13353) | MIC (K. pneumoniae ATCC 13883; ATCC 13883) | MIC (K. pneumoniae CCUG 45421; CCUG 45421) | MIC (K. pneumoniae F144; F144) | MIC (K. pneumoniae F145; F145) | MIC (P. aeruginosa ATCC 27853; ATCC 27853) | MIC (P. aeruginosa F58; F58) | MIC (S. aureus ATCC 25923; ATCC 25923)
32 µg/mL: MIC (K. oxytoca ATCC 13182; ATCC 13182)
0 square millimeters: growth inhibition around a well ([1]; 4 μg) | growth inhibition around a well ([1]; 10 μg) | growth inhibition around a well in the presence of rifampin ([2]; rifampin 0 μg/ml) | growth inhibition around a well in the presence of rifampin ([2]; rifampin 0.1 μg/ml) | growth inhibition around a well in the presence of rifampin ([2]; rifampin 0.3 μg/ml)

CCCCCCCC(=O)N[C@H](C(=O)N[C@H](CO)C(=O)N[C@H]1CCNC(=O)[C@H]([C@@H](C)O)NC(=O)[C@H](CCN)NC(=O)[C@H](CCN)NC(=O)[C@H](CC(C)C)NC(=O)[C@@H](Cc2ccccc2)NC(=O)[C@H](CCN)NC1=O)[C@@H](C)O [NAB 739, OA-Thr-DSer-cy[Dab-Dab-DPhe-Leu-Dab-Dab-Thr-]] (Octanoyl-T[dS][Dab][Dab][dF]L[Dab][Dab]T; lactam 3-C)
64 square millimeters: growth inhibition around a well in the presence of rifampin ([2]; rifampin 0.3 μg/ml)
>32 µg/mL: MIC (S. aureus ATCC 25923; ATCC 25923)
177 square millimeters: growth inhibition around a well ([1]; 10 μg)
1 µg/mL: MIC (E. coli ATCC 25922; ATCC 25922) | MIC (E. coli CCUG 41422) | MIC (E. coli CCUG 41427; CCUG 41427) | MIC (E. coli CCUG 41429; CCUG 41429) | MIC (E. coli CCUG 41432; CCUG 41432) | MIC (E. coli F10; F10) | MIC (E. coli NCTC 13353; NCTC 13353)
113 square millimeters: growth inhibition around a well ([1]; 4 μg)
2 µg/mL: MIC (C. freundii ATCC 8090; ATCC 8090) | MIC (E. cloacae CCUG 52947; CCUG 52947) | MIC (E. cloacae F230; F230) | MIC (E. cloacae F232; F232) | MIC (K. oxytoca ATCC 13182; ATCC 13182) | MIC (K. pneumoniae F145; F145)
38 square millimeters: growth inhibition around a well in the presence of rifampin ([2]; rifampin 0 μg/ml)
4 µg/mL: MIC (A. baumannii F263; F263) | MIC (A. baumannii F264; F264)
264 ± 91 µM: IC50 [3]
8 µg/mL: MIC (P. aeruginosa ATCC 27853; ATCC 27853) | MIC (P. aeruginosa F58; F58)

CCCCCCCCCC(=O)N[C@H](C(=O)N[C@H](CO)C(=O)N[C@H]1CCNC(=O)[C@H]([C@@H](C)O)NC(=O)[C@H](CCN)NC(=O)[C@H](CCN)NC(=O)[C@H](CC(C)C)NC(=O)[C@@H](Cc2ccccc2)NC(=O)[C@H](CCN)NC1=O)[C@@H](C)O [NAB 740, DA-Thr-DSer-cy[Dab-Dab-DPhe-Leu-Dab-Dab-Thr-]] (Decanoyl-T[dS][Dab][Dab][dF]L[Dab][Dab]T; lactam 3-C)
133 square millimeters: growth inhibition around a well ([1]; 4 μg)
201 square millimeters: growth inhibition around a well ([1]; 10 μg)
2 µg/mL: MIC (A. baumannii F263; F263) | MIC (A. baumannii F264; F264) | MIC (C. freundii ATCC 8090; ATCC 8090) | MIC (E. cloacae CCUG 52947; CCUG 52947) | MIC (E. cloacae F230; F230) | MIC (E. cloacae F232; F232) | MIC (E. coli ATCC 25922; ATCC 25922) | MIC (E. coli CCUG 41422) | MIC (E. coli CCUG 41432; CCUG 41432) | MIC (E. coli F10; F10) | MIC (E. coli NCTC 13353; NCTC 13353) | MIC (K. oxytoca ATCC 13182; ATCC 13182) | MIC (K. pneumoniae F145; F145)
>32 µg/mL: MIC (S. aureus ATCC 25923; ATCC 25923)
16(−4) μg/ml: MIC (K. pneumoniae F144; K. pneumoniae F144)
64 square millimeters: growth inhibition around a well in the presence of rifampin ([2]; rifampin 0 μg/ml) | growth inhibition around a well in the presence of rifampin ([2]; rifampin 0.1 μg/ml) | growth inhibition around a well in the presence of rifampin ([2]; rifampin 0.3 μg/ml)
8 µg/mL: MIC (K. pneumoniae ATCC 13883; ATCC 13883)
4 µg/mL: MIC (K. pneumoniae CCUG 45421; CCUG 45421) | MIC (P. aeruginosa ATCC 27853; ATCC 27853) | MIC (P. aeruginosa F58; F58)
198 ± 49 µM: IC50 [3]
1 µg/mL: MIC (E. coli CCUG 41427; CCUG 41427) | MIC (E. coli CCUG 41429; CCUG 41429)

Polymyxin B [reference compound]
32(−8) μg/ml: MIC (K. pneumoniae ATCC 13883; K. pneumoniae ATCC13883)
39.3 ± 5.5 µM: IC50 [3]
>32 µg/mL: MIC (S. aureus ATCC 25923; S. aureus ATCC 25923)
0.5 µg/mL: MIC (A. baumannii F264; A. baumannii F264) | MIC (E. cloacae F230; E. cloacae F230) | MIC (E. cloacae F232; E. cloacae F232) | MIC (E. coli F10; E. coli F10) | MIC (K. oxytoca ATCC 13182; K. oxytoca ATCC13182) | MIC (K. pneumoniae F145; K. pneumoniae F145) | MIC (P. aeruginosa F58; P. aeruginosa F58)
1 µg/mL: MIC (A. baumannii F263; A. baumannii F263) | MIC (C. freundii ATCC 8090; C. freundii ATCC8090) | MIC (E. cloacae CCUG 52947; E. cloacae CCUG52947) | MIC (E. coli ATCC 25922; E. coli ATCC25922) | MIC (E. coli CCUG 41427; E. coli CCUG41427) | MIC (E. coli CCUG 41429; E. coli CCUG41429) | MIC (E. coli CCUG 41432; E. coli CCUG41432) | MIC (E. coli NCTC 13353; E. coli NCTC13353) | MIC (K. pneumoniae CCUG 45421; K. pneumoniae CCUG45421) | MIC (K. pneumoniae F144; K. pneumoniae F144) | MIC (P. aeruginosa ATCC 27853; P. aeruginosa ATCC27853)
